In patent US7265106B2, “Method for isolating (R)-tofisopam” (Vela Aquisition Corporation, priority 2003, dated 2007) one finds solubility data, which are given here for one compound.

The nature of this data set: physchem. It counts as physicochemical. Particulars: organic solvent or mixture.

Values after ≈ are worked out from the molar mass of the structure shown.

Turning to `CCC1C(C)=NN=C(c2ccc(OC)c(OC)c2)c2cc(OC)c(OC)cc21` (racemic) [racemic tofisopam, 1-(3,4-dimethoxyphenyl)-4-methyl-5-ethyl-7,8-dimethoxy-5H-2,3-benzodiazepine], the solubility is about 136 mg/mL (≈ 354 mM).

The term solubility denotes the concentration that dissolves in the medium under given conditions.
